Reference: patent US20090042993A1, “IDENTIFICATION OF NOVEL POST-TRANSLATIONAL PROTEIN MODIFICATIONS” (priority 2007, published 2009)

System: BACE1
Experiment: BACE1 steady-state levels by Western blot in stably transfected CHO cells
Type: cell-based, human
Protocol: Chinese Hamster Ovary (CHO) cells were grown in DMEM (Gibco BRL—Invitrogen, Carlsbad, Calif.) supplemented with 10% fetal bovine serum (FBS) and penicillin/streptomycin (Mediatech, Inc., Herndon, Va.) as described before (Puglielli et al., 2001, Nat. Cell Biol. 3: 905-912; Puglielli et al., 2003, J. Biol. Chem. 278: 19777-19783; Costantini et al., 2005, Biochem. J. 391: 59-67; Costantini et al., 2006, EMBO J. 25: 1997-2006). Cells were maintained in a humidified atmosphere with 5% CO2. For ceramide treatment, C6-ceramide (also simply called ceramide herein) was administered at the final concentration of 10 μM; treatment was started when cells were ˜30% confluent and carried out for 4 days, unless specified otherwise. Treatment with proteasome inhibitors MG-132 (5 μM) and lactacystin (10 μM) was done for 10 hours, as described earlier (Qing et al., 2004, FASEB J. 18: 1571-1573).
Cell lysates were prepared in GTIP buffer (100 mM Tris-pH 7.6, 20 mM EDTA, 1.5 M NaCl) with 1% Triton X-100 (Roche, Basel, Switzerland), 0.25% NP40 (Roche), and a protease inhibitor cocktail (Roche) as described before (Puglielli et al., 2003, J. Biol. Chem. 278: 19777-19783; Costantini et al., 2005, Biochem. J. 391: 59-67). Briefly, cell monolayers were washed twice in PBS, scraped, transferred into eppendorf tubes, and centrifuged at 8,000 rpm for 5 min in a table-top centrifuge. Cell pellets were then lysed in ice for 30 min with the buffer indicated above, and centrifuged again at 14,000 rpm prior to the recollection of the protein extracts. Proteins were quantitated with the BCA Protein Assay (Pierce, Rockford, Ill.) following the manufacturer's instructions.
For the immunoprecipitation of BACE1, cell lysates were pre-cleared with BioMag Protein A (Polysciences, Inc., Warrington, Pa.); beads were used at the concentration of 15 μl of the slurry per sample and separated with a magnetic holder. BACE1 was then immunoprecipitated with anti-BACE1 antibodies overnight and recovered with BioMag Protein A as above. The immunoprecipitate-bead complexes were washed 3 times in PBS and boiled for 10 min in SDS sample buffer (Invitrogen) with β-mercaptoethanol. Beads were then separated and the samples were analyzed by reducing SDS-PAGE.
Western blotting was performed on 10% Bis-Tris, 4-12% Bis-Tris, or 7% Tris-Acetate SDS-PAGE systems (NuPAGE; Invitrogen) as described (Puglielli et al., 2001, Nat. Cell Biol. 3: 905-912; Puglielli et al., 2003, J. Biol. Chem. 278: 19777-19783; Costantini et al., 2005, Biochem. J. 391: 59-67; Costantini et al., 2006, EMBO J. 25: 1997-2006). The following antibodies were used: anti-BACE1 N-terminal (monoclonal antibody; R&D Systems, Minneapolis, Minn.); anti-BACE1 C-terminal (polyclonal antibody; Abcam, Cambridge, Mass.); anti-pro-BACE1 (polyclonal; Abcam); anti-acetylated lysine (monoclonal; Abcam); anti-calreticulin (ER marker, polyclonal; Abcam); anti-58 K Golgi/formiminotransferase cyclodeaminase (Golgi marker, polyclonal; Abcam); anti-syntaxin (Golgi marker, monoclonal; Abcam); anti-EEA1 (endosomes, monoclonal; BD Transduction Laboratories, Lexington, Ky.); anti-actin (polyclonal; Cell Signaling, Danvers, Mass.). Secondary antibodies (Amersham) were used at a 1:6000 dilution. Binding was detected by chemiluminescence (LumiGLO kit; KPL, Gaithersburg, Md.). Only a representative blot of at least three different experiments is shown throughout the paper.
FIG. 1 illustrates how BACE1 is transiently acetylated in the lumen of the ER. For this experiment, CHO cells expressing human BACE1 were treated with C6-ceramide (also simply called ceramide herein) for different periods of time. BACE1 was then immunoprecipitated and analyzed by Western blotting. FIG. 1(A): CHO cells stably expressing BACE1 were treated with ceramide for the indicated time. BACE1 was immunoprecipitated from total cell lysates, separated on a 7% Tris-Acetate NuPAGE system, and then analyzed by Western blot using either anti-BACE1 or anti-acetylated lysine antibodies. […]

CCCCCCCCCCCCC/C=C/[C@@H](O)[C@H](CO)NC(=O)CCCCC [ceramide, C6-ceramide]
steady-state levels of immature and mature BACE1 (CHO cells expressing human BACE1, ceramide 10 μM, apparent plateau at day 4): progressive increase in the steady-state levels | steady-state levels of BACE1Ala (CHO cells stably expressing BACE1Ala grown with ceramide): not affected
